# Measurements from US11807644B2 (PMV Pharmaceuticals, Inc., priority 2020, dated 2023).
# Target: T1, recombinant His-tag Y220C p53 DBD protein (Homo sapiens, UniProt P04637, Y220C)
# T1 construct: recombinant His-tag Y220C p53 DBD protein (amino acids #˜94-312)
# Assay: In vitro DNA binding activity assay (TR-FRET): binding of His-tag Y220C p53 DBD to biotin-labeled consensus DNA
# Type: biochemical
# Settings: SC150 = concentration to increase DNA binding by […], His-tag Y220C p53 DBD, biotin-labeled consensus DNA
row,Y220C SC150 (μM),Structure (SMILES)
1,* (* = 0 μM ≤ SC150 < 0.1 μM),"CN1CC[C@@H](Nc2cccc3c2cc(-c2noc(CNC(=O)c4ccn(CC5CC5)c4)n2)n3CC(F)(F)F)[C@@H](F)C1 [Compound 241B, 1-(cyclopropylmethyl)-N-{[3-(4-{[(3S,4R)-3-fluoro-1-methylpiperidin-4-yl]amino}-1-(2,2,2-trifluoroethyl)-1H-indol-2-yl)-1,2,4-oxadiazol-5-yl]methyl}-1H-pyrrole-3-carboxamide]"
2,* (* = 0 μM ≤ SC150 < 0.1 μM),"CN1CC[C@@H](Nc2cccc3c2cc(-c2noc(CNC(=O)c4cccc(N(C)C)c4)n2)n3CC(F)(F)F)[C@@H](F)C1 [Compound 242B, 3-(dimethylamino)-N-{[3-(4-{[(3S,4R)-3-fluoro-1-methylpiperidin-4-yl]amino}-1-(2,2,2-trifluoroethyl)-1H-indol-2-yl)-1,2,4-oxadiazol-5-yl]methyl}benzamide]"
3,* (* = 0 μM ≤ SC150 < 0.1 μM),"CN1CC[C@@H](Nc2cccc3c2cc(-c2noc(CNC(=O)c4ccc(N5CCCC5)cc4)n2)n3CC(F)(F)F)[C@@H](F)C1 [Compound 243B, N-{[3-(4-{[(3S,4R)-3-fluoro-1-methylpiperidin-4-yl]amino}-1-(2,2,2-trifluoroethyl)-1H-indol-2-yl)-1,2,4-oxadiazol-5-yl]methyl}-4-(pyrrolidin-1-yl)benzamide]"
4,* (* = 0 μM ≤ SC150 < 0.1 μM),"CC(O)Cn1ccc(C(=O)NCc2nc(-c3cc4c(N[C@@H]5CCN(C)C[C@@H]5F)cccc4n3CC(F)(F)F)no2)c1 (stereo partly drawn) [Compound 244B, N-{[3-(4-{[(3S,4R)-3-fluoro-1-methylpiperidin-4-yl]amino}-1-(2,2,2-trifluoroethyl)-1H-indol-2-yl)-1,2,4-oxadiazol-5-yl]methyl}-1-(2-hydroxypropyl)-1H-pyrrole-3-carboxamide]"
5,* (* = 0 μM ≤ SC150 < 0.1 μM),"CN1CC[C@@H](Nc2cccc3c2cc(-c2noc(CNC(=O)[C@@H]4C[C@H]4CN4CCOCC4)n2)n3CC(F)(F)F)[C@@H](F)C1 [Compound 245B, (1R,2R)-N-{[3-(4-{[(3S,4R)-3-fluoro-1-methylpiperidin-4-yl]amino}-1-(2,2,2-trifluoroethyl)-1H-indol-2-yl)-1,2,4-oxadiazol-5-yl]methyl}-2-[(morpholin-4-yl)methyl]cyclopropane-1-carboxamide]"
6,* (* = 0 μM ≤ SC150 < 0.1 μM),"CC(C)NC[C@@H]1C[C@H]1C(=O)NCc1nc(-c2cc3c(N[C@@H]4CCN(C)C[C@@H]4F)cccc3n2CC(F)(F)F)no1 [Compound 246B, (1R,2R)-N-{[3-(4-{[(3S,4R)-3-fluoro-1-methylpiperidin-4-yl]amino}-1-(2,2,2-trifluoroethyl)-1H-indol-2-yl)-1,2,4-oxadiazol-5-yl]methyl}-2-{[(propan-2-yl)amino]methyl}cyclopropane-1-carboxamide]"
7,* (* = 0 μM ≤ SC150 < 0.1 μM),"CCCNC[C@@H]1C[C@H]1C(=O)NCc1nc(-c2cc3c(N[C@@H]4CCN(C)C[C@@H]4F)cccc3n2CC(F)(F)F)no1 [Compound 247B, (1R,2R)-N-{[3-(4-{[(3S,4R)-3-fluoro-1-methylpiperidin-4-yl]amino}-1-(2,2,2-trifluoroethyl)-1H-indol-2-yl)-1,2,4-oxadiazol-5-yl]methyl}-2-[(propylamino)methyl]cyclopro-pane-1-carboxamide]"
8,* (* = 0 μM ≤ SC150 < 0.1 μM),"CN1CC[C@@H](Nc2cccc3c2cc(-c2noc(CNC(=O)c4ccn(CCC(=O)O)c4)n2)n3CC(F)(F)F)[C@@H](F)C1 [Compound 248B, 3-[3-({[3-(4-{[(3S,4R)-3-fluoro-1-methylpiperidin-4-yl]amino}-1-(2,2,2-trifluoroethyl)-1H-indol-2-yl)-1,2,4-oxadiazol-5-yl]methyl}carbamoyl)-1H-pyrrol-1-yl]propanoic acid]"
9,* (* = 0 μM ≤ SC150 < 0.1 μM),"CN1CC[C@@H](Nc2cccc3c2cc(-c2noc(CNC(=O)c4ccn(CCO)c4)n2)n3CC(F)(F)F)[C@@H](F)C1 [Compound 249B, N-{[3-(4-{[(3S,4R)-3-fluoro-1-methylpiperidin-4-yl]amino}-1-(2,2,2-trifluoroethyl)-1H-indol-2-yl)-1,2,4-oxadiazol-5-yl]methyl}-1-(2-hydroxyethyl)-1H-pyrrole-3-carboxamide]"
10,* (* = 0 μM ≤ SC150 < 0.1 μM),"CN1CC[C@@H](Nc2cccc3c2cc(-c2noc(CNC(=O)c4ccn(CC(F)F)c4)n2)n3CC(F)(F)F)[C@@H](F)C1 [Compound 250B, 1-(2,2-difluoroethyl)-N-{[3-(4-{[(3S,4R)-3-fluoro-1-methylpiperidin-4-yl]amino}-1-(2,2,2-trifluoroethyl)-1H-indol-2-yl)-1,2,4-oxadiazol-5-yl]methyl}-1H-pyrrole-3-carboxamide]"
11,* (* = 0 μM ≤ SC150 < 0.1 μM),"COC(C)(C)Cn1ccc(C(=O)NCc2nc(-c3cc4c(N[C@@H]5CCN(C)C[C@@H]5F)cccc4n3CC(F)(F)F)no2)c1 [Compound 251B, N-{[3-(4-{[(3S,4R)-3-fluoro-1-methylpiperidin-4-yl]amino}-1-(2,2,2-trifluoroethyl)-1H-indol-2-yl)-1,2,4-oxadiazol-5-yl]methyl}-1-(2-methoxy-2-methylpropyl)-1H-pyrrole-3-carboxamide]"
12,* (* = 0 μM ≤ SC150 < 0.1 μM),"CN1CC[C@@H](Nc2cccc3c2cc(-c2noc(CNC(=O)c4ccn(CC(C)(C)O)c4)n2)n3CC(F)(F)F)[C@@H](F)C1 [Compound 252B, N-{[3-(4-{[(3S,4R)-3-fluoro-1-methylpiperidin-4-yl]amino}-1-(2,2,2-trifluoroethyl)-1H-indol-2-yl)-1,2,4-oxadiazol-5-yl]methyl}-1-(2-hydroxy-2-methylpropyl)-1H-pyrrole-3-carboxamide]"
13,* (* = 0 μM ≤ SC150 < 0.1 μM),"COC(C)Cn1ccc(C(=O)NCc2nc(-c3cc4c(N[C@@H]5CCN(C)C[C@@H]5F)cccc4n3CC(F)(F)F)no2)c1 (stereo partly drawn) [Compound 253B, N-{[3-(4-{[(3S,4R)-3-fluoro-1-methylpiperidin-4-yl]amino}-1-(2,2,2-trifluoroethyl)-1H-indol-2-yl)-1,2,4-oxadiazol-5-yl]methyl}-1-(2-methoxypropyl)-1H-pyrrole-3-carboxamide]"
14,* (* = 0 μM ≤ SC150 < 0.1 μM),"CN1CC[C@@H](Nc2cccc3c2cc(-c2noc(CNC(=O)c4ccc5ccn(C)c5c4)n2)n3CC(F)(F)F)[C@@H](F)C1 [Compound 254B, N-{[3-(4-{[(3S,4R)-3-fluoro-1-methylpiperidin-4-yl]amino}-1-(2,2,2-trifluoroethyl)-1H-indol-2-yl)-1,2,4-oxadiazol-5-yl]methyl}-1-methyl-1H-indole-6-carboxamide]"
15,* (* = 0 μM ≤ SC150 < 0.1 μM),"CC(C)n1cc(C(=O)NCc2nc(-c3cc4c(N[C@@H]5CCN(C)C[C@@H]5F)cccc4n3CC(F)(F)F)no2)cn1 [Compound 255B, N-{[3-(4-{[(3S,4R)-3-fluoro-1-methylpiperidin-4-yl]amino}-1-(2,2,2-trifluoroethyl)-1H-indol-2-yl)-1,2,4-oxadiazol-5-yl]methyl}-1-(propan-2-yl)-1H-pyrazole-4-carboxamide]"
16,* (* = 0 μM ≤ SC150 < 0.1 μM),"CN1CC[C@@H](Nc2cccc3c2cc(-c2noc(CNC(=O)c4ccc(N5CCC(F)(F)CC5)cc4)n2)n3CC(F)(F)F)[C@@H](F)C1 [Compound 256B, 4-(4,4-difluoropiperidin-1-yl)-N-{[3-(4-{[(3S,4R)-3-fluoro-1-methylpiperidin-4-yl]amino}-1-(2,2,2-trifluoroethyl)-1H-indol-2-yl)-1,2,4-oxadiazol-5-yl]methyl}benzamide]"
17,* (* = 0 μM ≤ SC150 < 0.1 μM),"CC(C)n1cncc1C(=O)NCc1nc(-c2cc3c(N[C@@H]4CCN(C)C[C@@H]4F)cccc3n2CC(F)(F)F)no1 [Compound 257B, N-{[3-(4-{[(3S,4R)-3-fluoro-1-methylpiperidin-4-yl]amino}-1-(2,2,2-trifluoroethyl)-1H-indol-2-yl)-1,2,4-oxadiazol-5-yl]methyl}-1-(propan-2-yl)-1H-imidazole-5-carboxamide]"
18,* (* = 0 μM ≤ SC150 < 0.1 μM),"CN1CC[C@@H](Nc2cccc3c2cc(-c2noc(CNC(=O)c4ccc5[nH]ccc5c4)n2)n3CC(F)(F)F)[C@@H](F)C1 [Compound 258B, N-{[3-(4-{[(3S,4R)-3-fluoro-1-methylpiperidin-4-yl]amino}-1-(2,2,2-trifluoroethyl)-1H-indol-2-yl)-1,2,4-oxadiazol-5-yl]methyl}-1H-indole-5-carboxamide]"
19,* (* = 0 μM ≤ SC150 < 0.1 μM),"CN1CC[C@@H](Nc2cccc3c2cc(-c2noc(CNC(=O)c4ccc5c(ccn5C)c4)n2)n3CC(F)(F)F)[C@@H](F)C1 [Compound 259B, N-{[3-(4-{[(3S,4R)-3-fluoro-1-methylpiperidin-4-yl]amino}-1-(2,2,2-trifluoroethyl)-1H-indol-2-yl)-1,2,4-oxadiazol-5-yl]methyl}-1-methyl-1H-indole-5-carboxamide]"
20,* (* = 0 μM ≤ SC150 < 0.1 μM),"CN1CC[C@@H](Nc2cccc3c2cc(-c2noc(CNC(=O)c4ccc(N5CCOCC5)cc4)n2)n3CC(F)(F)F)[C@@H](F)C1 [Compound 260B, N-{[3-(4-{[(3S,4R)-3-fluoro-1-methylpiperidin-4-yl]amino}-1-(2,2,2-trifluoroethyl)-1H-indol-2-yl)-1,2,4-oxadiazol-5-yl]methyl}-4-(morpholin-4-yl)benzamide]"
21,* (* = 0 μM ≤ SC150 < 0.1 μM),"CN1CC[C@@H](Nc2cccc3c2cc(-c2noc(CNC(=O)c4cccc(N5CCOCC5)c4)n2)n3CC(F)(F)F)[C@@H](F)C1 [Compound 262B, N-{[3-(4-{[(3S,4R)-3-fluoro-1-methylpiperidin-4-yl]amino}-1-(2,2,2-trifluoroethyl)-1H-indol-2-yl)-1,2,4-oxadiazol-5-yl]methyl}-3-(morpholin-4-yl)benzamide]"
22,* (* = 0 μM ≤ SC150 < 0.1 μM),"CN1CC[C@@H](Nc2cccc3c2cc(-c2noc(CNC(=O)c4cccc(N5CCCC5)c4)n2)n3CC(F)(F)F)[C@@H](F)C1 [Compound 263B, N-{[3-(4-{[(3S,4R)-3-fluoro-1-methylpiperidin-4-yl]amino}-1-(2,2,2-trifluoroethyl)-1H-indol-2-yl)-1,2,4-oxadiazol-5-yl]methyl}-3-(pyrrolidin-1-yl)benzamide]"
